# ChEMBL document CHEMBL1149933, “Synthesis and structure-activity relationship of C-3 benzoyloxymethyl cephalosporins exhibiting anti-MRSA activities” (Bioorg Med Chem Lett, 1997)
# Columns and labels:
# Staphylococcus aureus [1] = assay: Inhibitory effect against methicillin resistant Staphylococcus aureus (A 27218), expressed as minimum inhibitory concentration; assay type: functional
# Staphylococcus aureus [2] = assay: Inhibitory effect against methicillin susceptible Staphylococcus aureus (A 15090), expressed as minimum inhibitory concentration; assay type: functional
# Staphylococcus aureus [3] = assay: Inhibitory effect against methicillin resistant Staphylococcus aureus (A 27621), expressed as minimum inhibitory concentration; assay type: functional
# Staphylococcus aureus [4] = assay: Inhibitory effect against methicillin resistant Staphylococcus aureus (A 27217), expressed as minimum inhibitory concentration; assay type: functional
# Staphylococcus aureus [5] = assay: Inhibitory effect against methicillin resistant Staphylococcus aureus (A 27223), expressed as minimum inhibitory concentration; assay type: functional
# [6] = In vitro half life in human plasma was determined; assay type: ADME, cell-free
# Staphylococcus aureus [7] = assay: Minimum inhibitory concentration against MRSA (strain A 27223)
# Mus musculus = assay: In vivo protective dose against MRSA (strain A 27223); assay type: functional; settings: read-out: PD50
Structure (SMILES),MIC (Staphylococcus aureus [1]),MIC (Staphylococcus aureus [2]),MIC (Staphylococcus aureus [3]),MIC (Staphylococcus aureus [4]),MIC (Staphylococcus aureus [5]),half-life [6],MIC (Staphylococcus aureus [7]),ED50 (Mus musculus)
Cc1ccc(C(=O)OCC2=C(C(=O)O)N3C(=O)[C@@H](NC(=O)CSc4cc(Cl)ccc4Cl)C3SC2)cc1 (stereo not given in full),0.06 µg/mL,0.125 µg/mL,0.25 µg/mL,0.5 µg/mL,0.5 µg/mL,–,–,–
O=C(CSc1cc(Cl)ccc1Cl)N[C@@H]1C(=O)N2C(C(=O)O)=C(COC(=O)c3cccnc3)CSC12 (stereo not given in full),2 µg/mL,0.125 µg/mL,4 µg/mL,2 µg/mL,4 µg/mL,–,–,–
CC(=O)Nc1ccc(C(=O)OCC2=C(C(=O)O)N3C(=O)[C@@H](NC(=O)CSc4cc(Cl)ccc4Cl)C3SC2)cc1 (stereo not given in full),0.5 µg/mL,0.06 µg/mL,1 µg/mL,0.5 µg/mL,1 µg/mL,–,–,–
C[n+]1ccc(C(=O)OCC2=C(C(=O)[O-])N3C(=O)[C@@H](NC(=O)CSc4cc(Cl)ccc4Cl)C3SC2)cc1 (stereo not given in full),2 µg/mL,0.125 µg/mL,32 µg/mL,8 µg/mL,32 µg/mL,–,–,–
C[n+]1cccc(C(=O)OCC2=C(C(=O)[O-])N3C(=O)[C@@H](NC(=O)CSc4cc(Cl)ccc4Cl)C3SC2)c1 (stereo not given in full),32 µg/mL,0.5 µg/mL,64 µg/mL,64 µg/mL,64 µg/mL,–,–,–
COc1ccc(C(=O)OCC2=C(C(=O)O)N3C(=O)[C@@H](NC(=O)CSc4cc(Cl)ccc4Cl)C3SC2)cc1 (stereo not given in full),0.125 µg/mL,0.06 µg/mL,0.5 µg/mL,0.06 µg/mL,0.5 µg/mL,–,–,–
N#Cc1ccc(C(=O)OCC2=C(C(=O)O)N3C(=O)[C@@H](NC(=O)CSc4cc(Cl)ccc4Cl)C3SC2)cc1 (stereo not given in full),0.125 µg/mL,0.03 µg/mL,0.5 µg/mL,0.125 µg/mL,1 µg/mL,–,–,–
CN(C)c1ccc(C(=O)OCC2=C(C(=O)O)N3C(=O)[C@@H](NC(=O)CSc4cc(Cl)ccc4Cl)C3SC2)cc1 (stereo not given in full),0.125 µg/mL,0.06 µg/mL,0.25 µg/mL,0.125 µg/mL,0.25 µg/mL,> 10 h,–,–
O=C(CSc1cc(Cl)ccc1Cl)N[C@@H]1C(=O)N2C(C(=O)O)=C(COC(=O)c3ccncc3)CSC12 (stereo not given in full),0.5 µg/mL,0.06 µg/mL,4 µg/mL,1 µg/mL,8 µg/mL,–,–,–
O=C(CSc1cc(Cl)ccc1Cl)N[C@@H]1C(=O)N2C(C(=O)O)=C(COC(=O)c3ccc(O)cc3)CSC12 (stereo not given in full),0.06 µg/mL,0.007 µg/mL,0.5 µg/mL,0.06 µg/mL,0.25 µg/mL,–,–,–
CC(=O)OCC1=C(C(=O)O)N2C(=O)[C@@H](NC(=O)CSc3cc(Cl)ccc3Cl)C2SC1 (stereo not given in full),–,–,–,–,–,~4.17 h,2 µg/mL,2 mg/kg
CC(=O)Oc1ccc(C(=O)OCC2=C(C(=O)O)N3C(=O)[C@@H](NC(=O)CSc4cc(Cl)ccc4Cl)C3SC2)cc1 (stereo not given in full),0.06 µg/mL,0.007 µg/mL,0.125 µg/mL,0.06 µg/mL,0.125 µg/mL,–,–,–
O=C(CSc1cc(Cl)ccc1Cl)N[C@@H]1C(=O)N2C(C(=O)O)=C(COC(=O)c3ccccc3)CSC12 (stereo not given in full),0.5 µg/mL,0.06 µg/mL,1 µg/mL,1 µg/mL,1 µg/mL,> 10 h,–,–
O=C(CSc1cc(Cl)ccc1Cl)N[C@@H]1C(=O)N2C(C(=O)O)=C(COC(=O)c3ccc([N+](=O)[O-])cc3)CSC12 (stereo not given in full),0.25 µg/mL,0.06 µg/mL,2 µg/mL,0.25 µg/mL,2 µg/mL,–,–,–
CN[C@H](CC(C)C)C(=O)N[C@H]1C(=O)N[C@@H](CC(N)=O)C(=O)N[C@H]2C(=O)N[C@H]3C(=O)N[C@H](C(=O)N[C@H](C(=O)O)c4cc(O)cc(O)c4-c4cc3ccc4O)[C@H](O)c3ccc(c(Cl)c3)Oc3cc2cc(c3O[C@@H]2O[C@H](CO)[C@@H](O)[C@H](O)[C@H]2O[C@H]2C[C@](C)(N)[C@H](O)[C@H](C)O2)Oc2ccc(cc2Cl)[C@H]1O [VANCOMYCIN],0.25 µg/mL,0.25 µg/mL,0.25 µg/mL,0.25 µg/mL,0.25 µg/mL,–,–,–
